Assay results reported in patent US20250034116A1, “1,4-DIHETEROCYCLIC SUBSTITUTED AROMATIC RING OR AROMATIC HETEROCYCLIC COMPOUND AND USE THEREOF” (BeBetter Med Inc., priority 2022, published 2025).

Assays:
[1] = test system: CYP enzymes in human liver microsomes (HLM); assay: Inhibition of 20-HETE production in human liver microsomes (HLM); format: biochemical
Method: (§1) Experimental principle: The inhibitory activity of 20-HETE production is evaluated by testing the inhibitory effects of the compound on human liver microsomes (HLM), rat liver microsomes (RLM), mouse liver microsomes (MLM), or […] CYP4 subtype enzymes (CYP4F2). This assay employs HLM, RLM, or MLM along with recombinant CYP4F2 (rCYP4F2) and recombinant CYP4A11 (rCYP4A11), which are […] CYP4 subtype enzymes, to detect the effects of the test compound at different concentrations on the metabolic rate of enzyme-specific substrates, to determine the inhibitory effects of the test compound on CYP enzymes in HLM, RLM, or MLM.
(§2) Experimental methods: Dissolve the test compound in DMSO, and subsequently dilute it with an acetonitrile and DMSO mixture (3:1). Add 2 μl of varying concentrations of the test compound and 100 μl of potassium phosphate buffer containing either liver microsomes or recombinant enzymes to a 96-well plate. After mixing well, transfer 30 μl to another well (in duplicate), add 15 μl of 400 μM substrate solution, and mix well again. Preheat at 37° C. for 10 minutes, and then add 15 μl of 6 mM NADPH and incubate at 37° C. for 25 minutes. After 25 minutes, add 160 μl of acetonitrile solution (containing 0.1 μg/ml internal standard) to stop the reaction. Mix well, centrifuge at 3500 g for 15 minutes, and then analyze the supernatant using LC-MS/MS.
(§3) Plot the compound concentration on the x-axis and the inhibition rate on the y-axis to draw the curve. Use GraphPad Prism 5 software to fit the curve and calculate the IC50. The formula is Y=Bottom+(Top−Bottom)/(1+10^((Log IC50−X)×HillSlope)). X represents the logarithmic concentration of the inhibitor, and Y represents the relative enzyme activity at a given inhibitor concentration (relative to the condition without the inhibitor).
(§4) Calculate the inhibition percentages at concentrations of 1000 nM, 500 nM, or 100 nM as well as the half-maximal inhibitory concentration (IC50) of the test compound from the above experiment.

[2] = test system: CYP enzymes in rat liver microsomes (RLM); assay: Inhibition of 20-HETE production in rat liver microsomes (RLM); format: biochemical
Method: as §1, §2, §3, §4

Structure (SMILES)	HLM (% inh @ 500 nM) [1]	RLM (% inh @ 500 nM) [2]	IC50 [1]	IC50 [2]
O=C1CCCN1CC1CCN(c2ccc(-c3cn[nH]c3)cc2CO)CC1 [Compound 17, 1-((1-(2-(hydroxymethyl)-4-(1H-pyrazol-4-yl)phenyl)piperidin-4-yl)methyl)pyrrolidin-2-one]	65.27%	17.66%	–	–
O=C1CCCN1CCC1CCN(c2ccc(-c3cn[nH]c3)cc2)CC1 [Compound 48, 1-(2-(1-(4-(1H-pyrazol-4-yl)phenyl)piperidin-4-yl)ethyl)pyrrolidin-2-one]	73.42%	39.97%	–	–
COC(=O)c1cc(-c2cn[nH]c2)ccc1N1CCC(CN2CCCC2=O)CC1 [Compound 18, methyl 2-(4-((2-oxopyrrolidin-1-yl)methyl)piperidin-1-yl)-5-(1H-pyrazol-4-yl)benzoate]	47.87%	8.61%	–	–
O=C(C1CCN(c2ccc(-c3cn[nH]c3)cc2)CC1)N1CC2(CCC2)C1 [Compound 67, (1-(4-(1H-pyrazol-4-yl)phenyl)piperidin-4-yl)(2-azaspiro[3.3]heptane-2-yl) methanone]	55.57%	30.84%	–	–
O=C(NCc1ccccc1)C1CCN(c2ccc(-c3cn[nH]c3)c(F)c2F)CC1 [Compound 95, N-benzyl-1-(2,3-difluoro-4-(1H-pyrazol-4-yl)phenyl)piperidine-4-carboxamide]	94.96%	61.73%	19.4 nM	341 nM
O=C1CCCN1CC1CCN(c2cc(F)c(-c3cn[nH]c3)cc2F)CC1 [Compound 6, 1-((1-(2,5-difluoro-4-(1H-pyrazol-4-yl)phenyl)piperidin-4-yl)methyl)pyrrolidin-2-one]	67.30%	23.02%	–	–
Cc1cc(-c2cn[nH]c2)ccc1N1CCC(CN2CCCC2=O)CC1 [Compound 12, 1-((1-(2-methyl-4-(1H-pyrazol-4-yl)phenyl)piperidin-4-yl)methyl)pyrrolidin-2-one]	76.91%	17.99%	–	–
O=S(=O)(C1CCCCC1)N1CCC(c2ccc(-c3cn[nH]c3)cc2F)CC1 [Compound 119, 1-(cyclohexylsulfonyl)-4-(2-fluoro-4-(1H-pyrazol-4-yl)phenyl)piperidine]	87.83%	75.79%	–	116 nM
O=C(C1CCCCC1)N1CCC(c2ccc(-c3cn[nH]c3)c(F)c2F)CC1 [Compound 97, cyclohexyl(4-(2,3-difluoro-4-(1H-pyrazol-4-yl)phenyl)piperidin-1-yl) methanone]	95.80%	–	25.6 nM	25.4 nM
O=S(=O)(c1ccc(F)cc1)N1CCC(c2ccc(-c3cn[nH]c3)cc2F)CC1 [Compound 120, 4-(2-fluoro-4-(1H-pyrazol-4-yl)phenyl)-1-((4-fluorophenyl)sulfonyl)piperidine]	93.40%	71.20%	16.1 nM	107 nM
O=C(NC1CCCC1)C1CCN(c2ccc(-c3cn[nH]c3)cc2)CC1 [Compound 55, 1-(4-(1H-pyrazol-4-yl)phenyl)-N-cyclopentylpiperidine-4-carboxamide]	62.73%	21.92%	–	–
N#Cc1cc(-c2cn[nH]c2)ccc1N1CCC(CN2CCCC2=O)CC1 [Compound 13, 2-(4-((2-oxopyrrolidin-1-yl)methyl)piperidin-1-yl)-5-(1H-pyrazol-4-yl)benzonitrile]	58.98%	−4.72%	–	–
O=C(N1CCCC1)N1CC2CCC(C1)N2c1ccc(-c2cn[nH]c2)c(F)c1F [Compound 128, (8-(2,3-difluoro-4-(1H-pyrazol-4-yl)phenyl)-3,8-diazabicyclo[3.2.1]octan-3-yl)(pyrrolidin-1-yl) methanone]	89.99%	62.11%	–	–
O=C(C1CCC(F)(F)CC1)N1CCC(c2ccc(-c3cn[nH]c3)c(F)c2F)CC1 [Compound 101, (4-(2,3-difluoro-4-(1H-pyrazol-4-yl)phenyl)piperidin-1-yl)(4,4-difluorocyclohexyl) methanone]	78.37%	69.34%	–	–
O=C1CCC(=O)N1CC1CCN(c2ccc(-c3cn[nH]c3)cc2)CC1 [Compound 28, 1-((1-(4-(1H-pyrazol-4-yl)phenyl)piperidin-4-yl)methyl)pyrrolidine-2,5-dione]	55.98%	16.98%	–	–
O=C1N(CC2CCN(c3ccc(-c4cn[nH]c4)cc3)CC2)CCC12CCCCC2 [Compound 31, 2-((1-(4-(1H-pyrazol-4-yl)phenyl)piperidin-4-yl)methyl)-2-azaspiro[4.5]decan-1-one]	68.02%	14.73%	–	–
O=C(NC1CCCC1)N1CCN(c2ccc(-c3cn[nH]c3)c(F)c2F)CC1 [Compound 89, N-cyclopentyl-4-(2,3-difluoro-4-(1H-pyrazol-4-yl)phenyl)piperazine-1-carboxamide]	94.11%	55.76%	–	–
O=C1C2CCC(C2)N1CC1CCN(c2ccc(-c3cn[nH]c3)cc2)CC1 (stereo not shown) [Compound 33, 2-((1-(4-(1H-pyrazol-4-yl)phenyl)piperidin-4-yl)methyl)-2-azabicyclo[2.2.1]heptan-3-one]	61.47%	8.80%	–	–
O=C(C1CCCC1)N1CCC(c2ccc(-c3cn[nH]c3)cc2F)CC1 [Compound 138, cyclopentyl(4-(2-fluoro-4-(1H-pyrazol-4-yl)phenyl)piperidin-1-yl) methanone]	92.84%	77.16%	–	–
O=C(NCC1CCN(c2ccc(-c3cn[nH]c3)cc2)CC1)C1CCCC1 [Compound 46, N-((1-(4-(1H-pyrazol-4-yl)phenyl)piperidin-4-yl)methyl)cyclopentanecarboxamide]	–	35.54%	43.2 nM	942 nM
O=C(N1CCCC1)N1CCN(c2ccc(-c3cn[nH]c3)cc2F)CC1 [Compound 129, (4-(2-fluoro-4-(1H-pyrazol-4-yl)phenyl)piperazin-1-yl)(pyrrolidin-1-yl) methanone]	89.94%	74.89%	–	–
O=C(C1CCN(c2ccc(-c3cn[nH]c3)cc2)CC1)N1CCCCC1 [Compound 54, (1-(4-(1H-pyrazol-4-yl)phenyl)piperidin-4-yl)(piperidin-1-yl) methanone]	81.26%	32.02%	–	995 nM
O=C(N1CCCCC1)N1CCN(c2ccc(-c3cn[nH]c3)c(F)c2F)CC1 [Compound 88, (4-(2,3-difluoro-4-(1H-pyrazol-4-yl)phenyl)piperazin-1-yl)(piperidin-1-yl) methanone]	78.05%	68.94%	–	–
C[C@@H]1CN(C(=O)N2CCCC2)CCN1c1ccc(-c2cn[nH]c2)c(F)c1F [Compound 104, (R)-(4-(2,3-difluoro-4-(1H-pyrazol-4-yl)phenyl)-3-methylpiperazin-1-yl)(pyrrolidin-1-yl) methanone]	78.18%	73.19%	–	–
O=Cc1cc(-c2cn[nH]c2)ccc1N1CCC(CN2CCCC2=O)CC1 [Compound 15, 2-(4-((2-oxopyrrolidin-1-yl)methyl)piperidin-1-yl)-5-(1H-pyrazol-4-yl)benzaldehyde]	64.22%	12.62%	–	–
